The values below come from patent US10077261B2, “Imidazolin-5-one derivative useful as FASN inhibitors for the treatment of cancer” (Janssen Pharmaceutica NV, priority 2012, dated 2018).

Experiment [1] deals with LNCaP-Vancouver prostate cells. Nature of the experiment: In vitro LNCaP Vancouver prostate cell proliferation assay in lipid reduced medium. The class given is cell-based. As to conditions: read-out: pIC50 LNCaP_Vancouver prostate cell (converted).
In experiment [2] the target is Fatty Acid Synthase Keto-reductase Domain (FASN KR) (Homo sapiens, UniProt P49327). In words: Fatty Acid Synthase keto-reductase domain (FASN KR) inhibition, NADPH oxidation at 340 nm.
Description: After 20 minutes incubation at room temperature the plate was measured again (T2).
The decrease in absorbance was calculated as (Absorbance before incubation T1)−(Absorbance following incubation T2).
A plot of Controlmin versus test compound concentration was fitted to a 4-parameter logistic curve using a non-linear least squares regression method.
In experiment [3] the test system is PC-3M-Luc-C6 prostate cells. Nature of the experiment: In vitro PC-3M-Luc-C6 prostate cell proliferation assay in lipid reduced medium. As to conditions: 96 h, read-out: pIC50 PC-3M-Luc-C6 prostate cell (converted). The class given is cell-based.
Experiment [4] relates to A2780 ovarian cells. In words: A2780 ovarian cell proliferation assay in lipid reduced medium, without palmitate (MTT). The class given is cell-based. As to conditions: Homo sapiens, A2780, 96 h; read-out: pIC50 A2780 Ovarian Cell, Without Palmitate (converted).
The target of experiment [5] is T1, hFASN enzyme (full length) (Homo sapiens, UniProt P49327).
T1 construct: 10 μL hFASN enzyme (full length, 300 ng, purified in house); made in house
Nature of the experiment: Fatty Acid Synthase (FASN) inhibition scintillation proximity assay. The class given is biochemical. As to conditions: for inhibition at 10 µM: read-out: Human FASN % inhibition @ 10 μM, 10 μM test compound; for IC50: read-out: Human FASN pIC50 (converted). In a few lines:
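Purified full-length hFASN (300 ng) converts ^3H-acetyl-CoA plus malonyl-CoA to ^3H-palmitate in 100 mM KH2PO4 pH 7.5, 1 mM DTT; compounds tested at 0.01–30 μM. Product captured on streptavidin imaging beads and read by LEADseeker at 610 nm after ≥24 h; 4-parameter logistic fit versus controls.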
(SPA uses beads or plates that emit light when radiolabelled molecules are held near them.)

Experiment [6] concerns A2780 ovarian cells. In words: A2780 ovarian cell proliferation assay in lipid reduced medium, with palmitate (MTT). As to conditions: Homo sapiens, A2780, 96 h; read-out: pIC50 A2780 Ovarian Cell, With Palmitate (converted). The class given is cell-based. The procedure, abridged:
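Seeded cells were switched next day to lipid-reduced serum, exposed to compound and 25 μM palmitate complexed with fatty-acid-free BSA, and incubated 96 h. Proliferation was then determined by MTT absorbance at 544 nm, with a best-fit curve of signal against concentration.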

T1 sequence (P49327 whole entry): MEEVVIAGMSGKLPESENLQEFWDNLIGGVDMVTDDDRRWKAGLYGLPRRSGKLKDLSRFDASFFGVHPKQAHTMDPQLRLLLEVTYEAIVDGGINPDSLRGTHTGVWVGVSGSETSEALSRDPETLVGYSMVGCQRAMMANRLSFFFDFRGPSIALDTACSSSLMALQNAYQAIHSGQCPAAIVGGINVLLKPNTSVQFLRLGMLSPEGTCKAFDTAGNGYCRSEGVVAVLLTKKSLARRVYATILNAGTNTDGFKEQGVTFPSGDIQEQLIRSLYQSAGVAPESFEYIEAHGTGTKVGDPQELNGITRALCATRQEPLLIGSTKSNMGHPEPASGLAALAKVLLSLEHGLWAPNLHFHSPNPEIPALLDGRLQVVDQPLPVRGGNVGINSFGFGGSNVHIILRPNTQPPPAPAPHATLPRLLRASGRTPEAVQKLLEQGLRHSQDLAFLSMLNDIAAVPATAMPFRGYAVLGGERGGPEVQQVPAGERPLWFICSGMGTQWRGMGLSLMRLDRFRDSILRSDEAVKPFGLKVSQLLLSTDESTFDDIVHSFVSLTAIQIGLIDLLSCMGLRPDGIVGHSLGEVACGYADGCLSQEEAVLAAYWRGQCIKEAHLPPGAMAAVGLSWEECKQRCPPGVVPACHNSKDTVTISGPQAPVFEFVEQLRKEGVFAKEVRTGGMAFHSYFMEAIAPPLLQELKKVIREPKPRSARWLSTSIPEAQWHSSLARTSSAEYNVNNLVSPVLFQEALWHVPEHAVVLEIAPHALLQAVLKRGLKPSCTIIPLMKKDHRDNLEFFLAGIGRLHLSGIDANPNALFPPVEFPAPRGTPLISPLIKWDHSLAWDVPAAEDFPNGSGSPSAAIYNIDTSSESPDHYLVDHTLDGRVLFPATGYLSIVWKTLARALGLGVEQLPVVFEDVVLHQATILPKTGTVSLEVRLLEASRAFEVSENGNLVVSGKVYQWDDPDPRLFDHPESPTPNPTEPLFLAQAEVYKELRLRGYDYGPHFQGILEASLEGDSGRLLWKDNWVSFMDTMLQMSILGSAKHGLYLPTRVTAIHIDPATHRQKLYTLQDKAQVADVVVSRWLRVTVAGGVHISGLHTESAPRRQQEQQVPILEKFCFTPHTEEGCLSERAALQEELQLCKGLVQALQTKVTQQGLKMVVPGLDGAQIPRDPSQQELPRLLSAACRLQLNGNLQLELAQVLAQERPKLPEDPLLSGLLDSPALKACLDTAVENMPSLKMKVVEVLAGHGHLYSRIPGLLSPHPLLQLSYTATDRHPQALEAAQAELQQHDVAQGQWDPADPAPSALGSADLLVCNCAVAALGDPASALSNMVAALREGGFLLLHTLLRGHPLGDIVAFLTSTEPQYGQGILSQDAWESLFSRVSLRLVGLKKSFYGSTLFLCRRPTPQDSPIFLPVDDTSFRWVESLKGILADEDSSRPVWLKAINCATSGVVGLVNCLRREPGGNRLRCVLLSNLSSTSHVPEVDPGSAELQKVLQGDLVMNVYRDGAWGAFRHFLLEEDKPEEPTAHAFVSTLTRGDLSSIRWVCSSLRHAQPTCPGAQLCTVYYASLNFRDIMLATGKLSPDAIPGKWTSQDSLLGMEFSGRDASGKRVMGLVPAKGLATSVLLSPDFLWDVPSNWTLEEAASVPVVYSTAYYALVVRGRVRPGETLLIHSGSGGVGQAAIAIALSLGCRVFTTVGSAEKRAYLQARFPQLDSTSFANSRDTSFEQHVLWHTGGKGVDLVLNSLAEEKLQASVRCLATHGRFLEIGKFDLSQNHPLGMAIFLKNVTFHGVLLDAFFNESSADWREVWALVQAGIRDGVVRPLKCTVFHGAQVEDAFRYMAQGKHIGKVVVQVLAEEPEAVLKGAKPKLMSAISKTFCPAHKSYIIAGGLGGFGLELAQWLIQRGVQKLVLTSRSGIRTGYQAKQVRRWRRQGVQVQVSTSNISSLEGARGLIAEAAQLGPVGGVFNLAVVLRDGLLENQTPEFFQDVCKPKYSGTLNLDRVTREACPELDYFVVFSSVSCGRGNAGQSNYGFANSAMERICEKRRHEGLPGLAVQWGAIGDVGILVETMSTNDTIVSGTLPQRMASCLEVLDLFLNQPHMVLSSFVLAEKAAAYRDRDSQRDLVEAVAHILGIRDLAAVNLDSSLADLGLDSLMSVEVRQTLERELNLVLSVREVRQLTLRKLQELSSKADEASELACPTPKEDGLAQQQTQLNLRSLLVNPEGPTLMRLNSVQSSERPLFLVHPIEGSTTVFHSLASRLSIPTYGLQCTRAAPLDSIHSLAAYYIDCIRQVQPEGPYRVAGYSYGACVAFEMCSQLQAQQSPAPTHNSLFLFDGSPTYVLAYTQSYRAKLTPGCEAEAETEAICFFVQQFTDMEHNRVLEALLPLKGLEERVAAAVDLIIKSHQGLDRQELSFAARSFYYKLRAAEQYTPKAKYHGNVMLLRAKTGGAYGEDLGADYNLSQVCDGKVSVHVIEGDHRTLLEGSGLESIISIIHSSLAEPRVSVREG
Sequence of Fatty Acid Synthase Keto-reductase Domain (FASN KR) (P49327 whole entry, the tested form may be a part): as the sequence (P49327 whole entry) above

By inhibition is commonly meant the drop in the measured response relative to a control, in per cent. `N#Cc1cc2cc(-c3ccc(C4=NC5(CC5)C(=O)N4CC4CN(C(=O)C5CC5)C4)cc3)ccc2o1` [compound 475, 5-[4-(6-{[1-(Cyclopropylcarbonyl)azetidin-3-yl]methyl}-7-oxo-4,6-diazaspiro[2.4]hept-4-en-5-yl)phenyl]-1-benzofuran-2-carbonitrile]: the IC50 in experiment [1] is 3310 nM; in experiment [2] it was 372 nM; in experiment [3], 661 nM; in the experiment on A2780 ovarian cells [4] it was 813 nM; in experiment [5], 166 nM; in the experiment with A2780 ovarian cells [6], greater than 10000 nM. The inhibition at 10 µM in experiment [5] was 93%.
As to `O=C(C1CC1)N1CC[C@@H](CN2C(=O)C3(CC3)N=C2c2ccc(-c3ccc4c(Cl)nccc4c3)cc2)C1` [compound 479, 5-[4-(1-Chloroisoquinolin-6-yl)phenyl]-6-{[(3R)-1-(cyclopropylcarbonyl)pyrrolidin-3-yl]methyl}-4,6-diazaspiro[2.4]hept-4-en-7-one], the IC50 in experiment [1] was 933 nM; in experiment [2] it was 447 nM; in experiment [3] it was 302 nM; with A2780 ovarian cells [4], 692 nM; in experiment [5], 162 nM; in the experiment with A2780 ovarian cells [6], greater than 10000 nM. For the same compound, the inhibition at 10 µM in experiment [5] was 95%.
Regarding `Cn1nc(N)c2ccc(-c3ccc(C4=NC5(CC5)C(=O)N4C[C@@H]4CCN(C(=O)C5CC5)C4)cc3)cc21` [compound 483, 5-[4-(3-Amino-1-methyl-1H-indazol-6-yl)phenyl]-6-{[(3R)-1-(cyclopropylcarbonyl)pyrrolidin-3-yl]methyl}-4,6-diazaspiro[2.4]hept-4-en-7-one], the IC50 in experiment [1] was 380 nM; in experiment [2] it was 174 nM; in experiment [3] it was roughly 91.2 nM; in the experiment on A2780 ovarian cells [4] it was 47.9 nM; in experiment [5] it was 107 nM; with A2780 ovarian cells [6] it was greater than 10000 nM. For the same compound, in experiment [5], the inhibition at 10 µM was 95%.
Turning to `COCc1nn(C)c2cc(-c3ccc(C4=NC5(CC5)C(=O)N4C[C@@H]4CCN(C(=O)C5CC5)C4)cc3)ccc12` [compound 484, 6-{[(3R)-1-(Cyclopropylcarbonyl)pyrrolidin-3-yl]methyl}-5-{4-[3-(methoxymethyl)-1-methyl-1H-indazol-6-yl]phenyl}-4,6-diazaspiro[2.4]hept-4-en-7-one], the IC50 was 550 nM in experiment [1]; 257 nM in experiment [2]; 151 nM in experiment [3]; 95.5 nM with A2780 ovarian cells [4]; 151 nM in experiment [5]; greater than 10000 nM in the experiment on A2780 ovarian cells [6]. In addition, the inhibition at 10 µM in experiment [5] came out at 99%.
`Cn1nc(CO)c2ccc(-c3ccc(C4=NC5(CC5)C(=O)N4C[C@@H]4CCN(C(=O)C5CC5)C4)cc3)cc21` [compound 485, 6-{[(3R)-1-(Cyclopropylcarbonyl)pyrrolidin-3-yl]methyl}-5-{4-[3-(hydroxymethyl)-1-methyl-1H-indazol-6-yl]phenyl}-4,6-diazaspiro[2.4]hept-4-en-7-one]: the IC50 was 631 nM in experiment [1]; 302 nM in experiment [2]; 214 nM in experiment [3]; roughly 123 nM in the experiment on A2780 ovarian cells [4]; 162 nM in experiment [5]; greater than 10000 nM with A2780 ovarian cells [6]. In experiment [5], the inhibition at 10 µM was 96%.
For `COCc1c2ccc(-c3ccc(C4=NC5(CC5)C(=O)N4C[C@@H]4CCN(C(=O)C5CC5)C4)cc3)cc2nn1C` [compound 486, 6-{[(3R)-1-(Cyclopropylcarbonyl)pyrrolidin-3-yl]methyl}-5-{4-[3-(methoxymethyl)-2-methyl-2H-indazol-6-yl]phenyl}-4,6-diazaspiro[2.4]hept-4-en-7-one], the IC50 in experiment [1] is 4470 nM; in experiment [2] it was 2630 nM; in experiment [3], roughly 2820 nM; in the experiment on A2780 ovarian cells [4], roughly 2190 nM; in experiment [5] it was 1510 nM; with A2780 ovarian cells [6] it was greater than 10000 nM. The inhibition at 10 µM in experiment [5] worked out at 81%.
In the case of `Cc1cc(-c2ccc3c(cnn3C)c2)ccc1C1=NC2(CC2)C(=O)N1CC1CN(C(=O)N(C)C)C1` [compound 488, N,N-Dimethyl-3-({5-[2-methyl-4-(1-methyl-1H-indazol-5-yl)phenyl]-7-oxo-4,6-diazaspiro[2.4]hept-4-en-6-yl}methyl)azetidine-1-carboxamide], the IC50 in experiment [1] was 1550 nM; in experiment [2], 501 nM; in experiment [3], 575 nM; with A2780 ovarian cells [4] it was 302 nM; in experiment [5] it was 214 nM; with A2780 ovarian cells [6], greater than 10000 nM. Besides, the inhibition at 10 µM in experiment [5] was 88%.
On to `Cn1nc(C#N)c2ccc(-c3ccc(C4=NC5(CC5)C(=O)N4C[C@@H]4CCN(C(=O)C5CC5)C4)cc3)cc21` [compound 493, 6-[4-(6-{[(3R)-1-(Cyclopropylcarbonyl)pyrrolidin-3-yl]methyl}-7-oxo-4,6-diazaspiro[2.4]hept-4-en-5-yl)phenyl]-1-methyl-1H-indazole-3-carbonitrile], for which the IC50 is 1260 nM in experiment [1]; 427 nM in experiment [2]; 158 nM in experiment [3]; roughly 209 nM in the experiment with A2780 ovarian cells [4]; 166 nM in experiment [5]; greater than 10000 nM in the experiment on A2780 ovarian cells [6]. Also, the inhibition at 10 µM in experiment [5] is 98%.
Consider `NC(=O)c1cccc(-c2ccc(C3=NC4(CC4)C(=O)N3C[C@@H]3CCN(C(=O)C4CC4)C3)cc2)c1` [compound 494, 4′-(6-{[(3R)-1-(Cyclopropylcarbonyl)pyrrolidin-3-yl]methyl}-7-oxo-4,6-diazaspiro[2.4]hept-4-en-5-yl)biphenyl-3-carboxamide], for which the IC50 in experiment [1] was 4680 nM; in experiment [2], 661 nM; in experiment [3] it was 891 nM; with A2780 ovarian cells [4], 692 nM; in experiment [5], 219 nM; with A2780 ovarian cells [6], greater than 10000 nM. Besides, the inhibition at 10 µM in experiment [5] was 95%.
For `Cc1cc(-c2ccc3c(cnn3C)c2)ccc1C1=NC2(CC2)C(=O)N1CC1CN(C(=O)C(C)(C)O)C1` [compound 495, 6-{[1-(2-Hydroxy-2-methylpropanoyl)azetidin-3-yl]methyl}-5-[2-methyl-4-(1-methyl-1H-indazol-5-yl)phenyl]-4,6-diazaspiro[2.4]hept-4-en-7-one], the IC50 in experiment [1] is roughly 3240 nM; in experiment [2] it was 724 nM; in experiment [3] it was roughly 589 nM; in the experiment with A2780 ovarian cells [4], 275 nM; in experiment [5], 257 nM; in the experiment on A2780 ovarian cells [6], greater than 10000 nM. Besides, the inhibition at 10 µM in experiment [5] turned out to be 95%.
Regarding `Cc1cc(-c2ccc3c(cnn3C)c2)ccc1C1=NC2(CC2)C(=O)N1CC1CN(C(=O)C2(C)COC2)C1` [compound 496, 5-[2-Methyl-4-(1-methyl-1H-indazol-5-yl)phenyl]-6-({1-[(3-methyloxetan-3-yl)carbonyl]azetidin-3-yl}methyl)-4,6-diazaspiro[2.4]hept-4-en-7-one], the IC50 is 1740 nM in experiment [1]; 575 nM in experiment [2]; roughly 355 nM in experiment [3]; 209 nM in the experiment with A2780 ovarian cells [4]; 302 nM in experiment [5]; greater than 10000 nM with A2780 ovarian cells [6]. In experiment [5], the inhibition at 10 µM was found to be 94%.
In the case of `Cc1cc(-c2ccc(C3=NC4(CC4)C(=O)N3CC3CN(C(=O)C4CC4)C3)c(F)c2)cc2cnn(C)c12` [compound 520, 6-{[1-(Cyclopropylcarbonyl)azetidin-3-yl]methyl}-5-[4-(1,7-dimethyl-1H-indazol-5-yl)-2-fluorophenyl]-4,6-diazaspiro[2.4]hept-4-en-7-one], the IC50 in experiment [1] was 2570 nM; in experiment [2] it was 631 nM; in experiment [3], 501 nM; with A2780 ovarian cells [4], 389 nM; in experiment [5], 427 nM; in the experiment with A2780 ovarian cells [6], greater than 10000 nM. The inhibition at 10 µM in experiment [5] was found to be 97%.
